Data set [1] concerns the target T1, NLRP3 (Homo sapiens, UniProt Q96P20). Briefly: THP-1 cells pyroptosis assay (LPS + nigericin, resazurin readout; THP IC50). The data set is classed as cell-based. Set-up: Seed THP-1 cells (25,000 cells/well) containing 1.0 μg/ml LPS in 40 μl of RPMI medium; host or cells: THP-1 cells. Put shortly:
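IC50 from 4-parameter fit of resazurin fluorescence (100 μM, 1-2 hrs), reflecting surviving cells after pyroptosis. LPS-primed (1 μg/ml) THP-1 cells in FBS-free RPMI got compound for 3 hrs at 37° C (top 10 μM, half-log, 8 points), then nigericin 5 μM for 1 hr.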
(Alamar Blue is a resazurin reagent that responds to reducing activity.)

A short description of data set [2]: PK protocol, intravenous administration. The data set is classed as in vivo, male Sprague Dawley rats. Particulars: male, Sprague Dawley, plasma, rat; for Vd: read-out: Vdss. As for the experimental part: Pharmacokinetic parameters were determined in male Sprague Dawley rats (Charles River, UK, 250-350 g; or Vital River Laboratory Animal Technology Co Ltd, Beijing, China, 7-9 weeks old). Animals were individually housed during the study and maintained under a 12 h light/dark cycle. Animals had free access to food and water.
For intravenous administration, compounds were formulated as a solution in water or DMSO:PBS [10:90] in 2 mL/kg dosing volume and administered via tail vein. For oral administration, compounds were formulated as a solution in DMSO:water [10:90] in 5 mL/kg dosing volume and administered orally.
Serial blood samples (about 120-300 μL) were taken from each animal at each of 8 time-points post dose (0.083, 0.25, 0.5, 1, 2, 4, 8 and 24 h) or at each of 12 time-points post dose (0.03, 0.1, 0.17, 0.25, 0.5, 1, 2, 4, 6, 8, 12 and 24 h) or pre-dose and at each of 9 time-points post dose (0.25, 0.5, 1, 2, 4, 6, 8, 12 and 24 h). Samples were held on ice for no longer than 30 minutes before centrifugation (10,000 rpm (8,385 g) for 3 minutes; or 5,696 rpm (3,000 g) for 15 minutes) for plasma generation. Plasma was frozen on dry ice prior to bioanalysis. PK parameters were generated from LC-MS/MS data using Dotmatics or Phoenix WinNonlin 6.3 software.

Data set [3] deals with T1, NLRP3. Briefly: Human whole blood IL1β release assay (LPS + nigericin, AlphaLisa IL-1β; HWB IC50). The data set is classed as cell-based. On the set-up: Human whole blood in Li-heparin tubes was obtained from healthy donors from a volunteer donor panel; from tissue; host or cells: human whole blood from healthy donors. Particulars: IL-1β release. Put shortly:
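IL-1β in plasma supernatant quantified by AlphaLisa after nigericin (10 μM final, 1 h, 37 °C) triggering of human whole blood that had been preincubated 3 h with LPS (1 μg/ml) plus compound (half-log, 8 points, from 10 μM). IC50 by variable-slope four-parameter regression.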

Where a name gives a salt, the structure may show the parent alone. Read-outs that look alike come from different tables or passages of the source.

Broadly, the IC50 is the concentration at which inhibition is half-maximal. Usually AUC stands for concentration integrated over time. Low readings indicate low exposure, high ones high exposure. The clearance is the volume of plasma or blood freed of the substance per unit of time. Read a high clearance as efficient removal. The half-life is the time needed for the level to fall by half in the phase considered. A high value points to slow decline.

T1 sequence (Q96P20 whole entry): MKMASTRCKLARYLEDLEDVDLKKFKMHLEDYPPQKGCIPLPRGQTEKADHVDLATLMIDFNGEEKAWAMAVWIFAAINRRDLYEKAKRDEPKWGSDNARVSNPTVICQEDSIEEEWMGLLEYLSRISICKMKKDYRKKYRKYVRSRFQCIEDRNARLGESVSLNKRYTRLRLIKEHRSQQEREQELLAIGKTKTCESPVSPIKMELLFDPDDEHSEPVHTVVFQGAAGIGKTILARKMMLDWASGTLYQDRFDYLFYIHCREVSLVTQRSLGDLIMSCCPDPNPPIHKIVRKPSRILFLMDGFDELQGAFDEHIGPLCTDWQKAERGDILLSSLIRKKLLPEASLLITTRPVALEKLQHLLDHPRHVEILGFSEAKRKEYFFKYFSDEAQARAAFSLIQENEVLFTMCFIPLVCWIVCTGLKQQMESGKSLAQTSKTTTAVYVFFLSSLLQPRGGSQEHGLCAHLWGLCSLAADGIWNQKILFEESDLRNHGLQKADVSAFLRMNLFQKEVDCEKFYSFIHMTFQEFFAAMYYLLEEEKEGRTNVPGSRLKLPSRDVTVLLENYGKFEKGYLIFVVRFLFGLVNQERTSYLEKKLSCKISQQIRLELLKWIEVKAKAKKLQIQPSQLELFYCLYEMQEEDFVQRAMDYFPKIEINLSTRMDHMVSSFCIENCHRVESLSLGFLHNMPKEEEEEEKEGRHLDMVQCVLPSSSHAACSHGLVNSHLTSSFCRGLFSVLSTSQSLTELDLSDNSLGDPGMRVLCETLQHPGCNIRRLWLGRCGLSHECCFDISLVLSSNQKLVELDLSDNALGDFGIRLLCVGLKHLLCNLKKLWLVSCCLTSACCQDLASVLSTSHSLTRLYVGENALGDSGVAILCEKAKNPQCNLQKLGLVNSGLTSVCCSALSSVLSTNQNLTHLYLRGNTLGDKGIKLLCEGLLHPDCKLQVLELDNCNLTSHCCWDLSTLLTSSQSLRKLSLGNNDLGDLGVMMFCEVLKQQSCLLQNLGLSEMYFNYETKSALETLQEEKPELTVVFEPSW

Consider `CC(C)c1cc(F)cc(-c2cccnc2)c1NC(=O)NS(=O)(=O)c1ccn(C(C)C)n1` [Example 1, N-((4-Fluoro-2-iso-propyl-6-(pyridin-3-yl)phenyl)carbamoyl)-1-iso-propyl-1H-pyrazole-3-sulfonamide], for which, at NLRP3 [1], the IC50 is ≤ 500 nM. Also, in data set [2] (dose 1 mg/kg), the AUC was 341 ng·h/mL, the clearance came to 49.1 mL/min/kg, the half-life was 3.3 h and the Vd worked out at 4.49 L/kg. Further, the IC50 on NLRP3 [3] is ≤ 500 nM.
As for `CC(C)c1cc(F)cc(-c2ccncc2)c1NC(=O)NS(=O)(=O)c1ccn(C(C)C)n1` [Example 10, N-((4-Fluoro-2-iso-propyl-6-(pyridin-4-yl)phenyl)carbamoyl)-1-iso-propyl-1H-pyrazole-3-sulfonamide, partial ammonium salt], the half-inhibitory concentration (IC50) on NLRP3 [1] was ≤ 500 nM. For the same compound, in data set [2] (dose 1.98 mg/kg), the area under the curve (AUC) came to 806 ng·h/mL, the clearance is 40.9 mL/min/kg, the half-life is 3.8 h and the Vd was determined as 7.14 L/kg. The 50% inhibitory concentration (IC50) at NLRP3 [3] was ≤ 500 nM.
On to `CC(C)c1cc(F)cc(-c2ccnc(O)c2)c1NC(=O)NS(=O)(=O)c1ccn(C(C)C)n1` [Example 25, N-((4-Fluoro-2-(2-hydroxypyridin-4-yl)-6-iso-propylphenyl)carbamoyl)-1-iso-propyl-1H-pyrazole-3-sulfonamide], for which, on NLRP3 [1], the IC50 is ≤ 500 nM. In addition, in data set [2] (dose 1 mg/kg), the area under the curve (AUC) came to 412 ng·h/mL, the clearance amounted to 41.9 mL/min/kg, the half-life is 0.4 h and the Vd stood at 0.41 L/kg. Besides, the IC50 on NLRP3 [3] is ≤ 500 nM.
Take `CC(C)c1cc(F)cc(-c2ccnc(C#N)c2)c1NC(=O)NS(=O)(=O)c1ccn(C(C)C)n1` [Example 28, N-((2-(2-Cyanopyridin-4-yl)-4-fluoro-6-iso-propylphenyl)carbamoyl)-1-iso-propyl-1H-pyrazole-3-sulfonamide]: the IC50 at NLRP3 [1] was ≤ 500 nM. For the same compound, in data set [2] (dose 1 mg/kg), the area under the curve (AUC) came to 386 ng·h/mL, the clearance was 43.3 mL/min/kg, the half-life was 1.2 h and the Vd came to 1.07 L/kg. Besides, at NLRP3 [3], the IC50 is ≤ 500 nM.
`CC(C)c1cc(F)cc(C2CCOCC2)c1NC(=O)NS(=O)(=O)c1cc(C(=O)N(C)C)n(C)n1` [Example 30, 3-(N-((4-Fluoro-2-iso-propyl-6-(tetrahydro-2H-pyran-4-yl)phenyl)carbamoyl)sulfamoyl)-N,N,1-trimethyl-1H-pyrazole-5-carboxamide, sodium salt]: the 50% inhibitory concentration (IC50) on NLRP3 [1] was ≤ 5000 nM. Also, in data set [2] (dose 1 mg/kg), the AUC was determined as 182 ng·h/mL, the clearance came to 91.3 mL/min/kg, the half-life is 2.3 h and the Vd was 2.72 L/kg. The IC50 on NLRP3 [3] is ≤ 500 nM.
`COc1cc(-c2cc(F)cc(C(C)C)c2NC(=O)NS(=O)(=O)c2cncc(N(C)C)n2)ccn1` [Example 103, 6-(Dimethylamino)-N-((4-fluoro-2-isopropyl-6-(2-methoxypyridin-4-yl)phenyl)carbamoyl)pyrazine-2-sulfonamide]: the half-maximal inhibitory concentration (IC50) at NLRP3 [1] was ≤ 500 nM. Besides, in data set [2] (dose 1 mg/kg), the AUC stood at 346 ng·h/mL, the clearance worked out at 48.1 mL/min/kg, the half-life was 2.2 h and the Vd stood at 1.77 L/kg.
As for `COc1cc(-c2ccc3c(c2NC(=O)NS(=O)(=O)c2cncc(N(C)C)n2)CCC3)ccn1` [Example 104, 6-(Dimethylamino)-N-((5-(2-methoxypyridin-4-yl)-2,3-dihydro-1H-inden-4-yl)carbamoyl)pyrazine-2-sulfonamide], the concentration for half-maximal inhibition (IC50) at NLRP3 [1] was ≤ 500 nM. In data set [2] (dose 1 mg/kg), the AUC turned out to be 841 ng·h/mL, the clearance stood at 19.8 mL/min/kg, the half-life was 1.2 h and the Vd turned out to be 1.04 L/kg.
Regarding `COc1cc(-c2ccc3c(c2NC(=O)NS(=O)(=O)c2ccn(C(C)(C)CN4CC(F)C4)n2)CCO3)ccn1` [Example 307, 1-(1-(3-Fluoroazetidin-1-yl)-2-methylpropan-2-yl)-N-((5-(2-methoxypyridin-4-yl)-2,3-dihydrobenzofuran-4-yl)carbamoyl)-1H-pyrazole-3-sulfonamide], the IC50 on NLRP3 [1] and on NLRP3 [3] was ≤ 500 nM throughout.
Regarding `COc1cc(-c2ccc3c(c2NC(=O)NS(=O)(=O)c2ccc(C(=O)N(C)C)cc2)CCC3)ccn1` [Example 308, 4-(N-((5-(2Mmethoxypyridin-4-yl)-2,3-dihydro-1H-inden-4-yl)carbamoyl)sulfamoyl)-N,N-dimethylbenzamide, sodium salt], the IC50 on NLRP3 [1] is ≤ 500 nM; on NLRP3 [3] it was ≤ 1000 nM.
For `[2H]C([2H])([2H])Oc1cc(-c2ccc3c(c2NC(=O)NS(=O)(=O)c2ccc(CN(C)C)cc2)CCC3)ccn1` [Example 310, 4-((Dimethylamino)methyl)-N-((5-(2-(methoxy-d3)pyridin-4-yl)-2,3-dihydro-1H-inden-4-yl)carbamoyl)benzenesulfonamide] the same measures were ≤ 500 nM and ≤ 500 nM.
The matching figures for `COc1cc(-c2ccc3c(c2NC(=O)NS(=O)(=O)c2ccc(CN(C)C)cc2)CCO3)ccn1` [Example 311, 4-((Dimethylamino)methyl)-N-((5-(2-methoxypyridin-4-yl)-2,3-dihydrobenzofuran-4-yl)carbamoyl)benzenesulfonamide]: ≤ 500 nM and ≤ 500 nM.
The matching figures for `COc1cc(-c2ccc3c(c2NC(=O)NS(=O)(=O)c2ccn(C4(CN5CCC5)CCC4)n2)CCC3)ccn1` [Example 312, 1-(1-(Azetidin-1-ylmethyl)cyclobutyl)-N-((5-(2-methoxypyridin-4-yl)-2,3-dihydro-1H-inden-4-yl)carbamoyl)-1H-pyrazole-3-sulfonamide]: ≤ 500 nM and ≤ 500 nM.
For `COc1cc(-c2ccc3c(c2NC(=O)NS(=O)(=O)c2ccc(CN(C)C)c(C4CC4)c2)CCC3)ccn1` [Example 313, 3-Cyclopropyl-4-((dimethylamino)methyl)-N-((5-(2-methoxypyridin-4-yl)-2,3-dihydro-1H-inden-4-yl)carbamoyl)benzenesulfonamide], the IC50 on NLRP3 [1] and at NLRP3 [3] was ≤ 500 nM each time.
Turning to `COc1cc(-c2c(C)cc3c(c2NC(=O)NS(=O)(=O)c2ccn(C4CC4)n2)CCC3)ccn1` [Example 314, 1-Cyclopropyl-N-((5-(2-methoxypyridin-4-yl)-6-methyl-2,3-dihydro-1H-inden-4-yl)carbamoyl)-1H-pyrazole-3-sulfonamide], the IC50 on NLRP3 [1] is ≤ 500 nM; at NLRP3 [3] it was ≤ 1000 nM.
On to `CN1CCC(N(C)S(=O)(=O)NC(=O)Nc2c(-c3ccnc(C#N)c3)ccc3c2CCC3)C1` (stereo not shown) [Example 317, 3-(N-Methyl-N-(1-methylpyrrolidin-3-yl)sulfamoyl)-1-(5-(2-cyanopyridin-4-yl)-2,3-dihydro-1H-inden-4-yl)urea], for which the 50% inhibitory concentration (IC50) on NLRP3 [1] and on NLRP3 [3] was ≤ 500 nM each time.
Regarding `CN1CCC2CN(S(=O)(=O)NC(=O)Nc3c(-c4ccnc(C#N)c4)ccc4c3CCC4)CC21` (stereo not shown) [Example 318, N-((5-(2-Cyanopyridin-4-yl)-2,3-dihydro-1H-inden-4-yl)carbamoyl)-1-methylhexahydropyrrolo[3,4-b]pyrrole-5(1H)-sulfonamide], the IC50 was ≤ 1000 nM at NLRP3 [1] and ≤ 500 nM on NLRP3 [3].
The matching figures for `COc1cc(-c2ccc3c(c2NC(=O)NS(=O)(=O)N2CC4CCN(C)C4C2)CCC3)ccn1` (stereo not shown) [Example 320, N-((5-(2-Methoxypyridin-4-yl)-2,3-dihydro-1H-inden-4-yl)carbamoyl)-1-methylhexahydropyrrolo[3,4-b]pyrrole-5(1H)-sulfonamide, potassium salt]: ≤ 500 nM and ≤ 500 nM.
The matching figures for `CN1CCCC1CN(C)S(=O)(=O)NC(=O)Nc1c(-c2ccnc(C#N)c2)ccc2c1CCC2` (stereo not shown) [Example 321, 3-(N-Methyl-N-((1-methylpyrrolidin-2-yl)methyl)sulfamoyl)-1-(5-(2-cyanopyridin-4-yl)-2,3-dihydro-1H-inden-4-yl)urea]: ≤ 1000 nM and ≤ 500 nM.
For `CC(C)(O)c1coc(S(=O)(=O)NC(=O)Nc2c3c(nn2-c2ccncc2)CCC3)c1` [Example 323, 4-(2-Hydroxypropan-2-yl)-N-((2-(pyridin-4-yl)-2,4,5,6-tetrahydrocyclopenta[c]pyrazol-3-yl)carbamoyl)furan-2-sulfonamide] the same measures were ≤ 5000 nM and ≤ 500 nM.

The values are drawn from patent US20200361895A1, “NOVEL SULFONAMIDE CARBOXAMIDE COMPOUNDS” (Inflazome Limited, priority 2017, published 2020).
